Assay results reported in PubChem BioAssay (NCI).
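All cell lines were grown in 96-well plates and treated with compound for 48 hours. GI50 marks 50% less growth. At the TGI there is no net growth.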

System: OVCAR-5 ovarian
Assay: DTP human tumour cell line panel, 48 h

Row | SMILES | TGI | GI50
1 | OCC1OC(n2cnc3c2NC=NC[C@H]3O)C(Cl)C1O (some centres undefined) | > 100 µM | 
2 | COc1ccc(C2=C(Cl)c3cc(OC)c(OC)cc3C2Cl)cc1 (centres undefined) | 29.2 µM | 
3 | O=C(/C=C/c1ccc(Cl)c(Cl)c1)c1ccc2ccccc2c1 | > 100 µM | 
4 | COc1ccc(-c2[nH]c3ccc(OC)cc3c2/C=C(\C#N)S(=O)(=O)c2ccccc2)cc1 | > 100 µM | 3.85 µM
5 | O=c1cc(NCC(O)CN2CCCC2)n(Cc2ccccc2)c(=O)n1Cc1ccccc1 (centres undefined) | > 100 µM | > 100 µM
6 | c1ccc(Sc2ccc(Cc3nc4cc5ccccc5cc4[nH]3)cc2)cc1 | 98.8 µM | 17.9 µM
7 | CCc1nc2cc(F)c(/C=C/C(=O)NO)cc2c(=O)n1CCc1ccccc1 | 17.6 µM | 0.402 µM
8 | COc1cc(OC)c(C(=O)/C=C/c2cccc(C(F)(F)F)c2)c(OC)c1 | 7.04 µM | 2.28 µM
9 | C/C(=N\Nc1ccc(Cl)cn1)c1ccc2ccccc2n1 | > 100 µM | 5.44 µM
10 | CC1=C(/C=C/Cl)CC(Cl)C(C)(Cl)C1 (centres undefined) | > 100 µM | 
11 | COc1cc2c(cc1OCCCCC(=O)Nc1cc3c4ccccc4ccc3c3ccccc13)N=C[C@@H]1CCCN1C2=O | 52.8 µM | 11.5 µM
12 | COc1c2c(cc3c1OCO3)[C@]13C=C[C@H](OC)C[C@H]1N(C2)CC3O (some centres undefined) | > 100 µM | 
13 | Cc1[nH]c(=O)nc2[nH][nH]c(=O)c12 | > 100 µM | 
14 | C=C1C(=O)O[C@H]2[C@H]1CC/C(COC(=O)NCCCCNC(=O)OC/C1=C/CC[C@@]3(C)O[C@H]3[C@H]3OC(=O)C(=C)[C@@H]3CC1)=C\CC[C@@]1(C)O[C@@H]21 | 3.69 µM | 1.75 µM
15 | Cc1cc(NS(=O)(=O)c2ccc(Nc3c4ccccc4nc4c(C(=O)N5CCN(CCO)CC5)cccc34)cc2)no1 | > 100 µM | 
16 | COc1ccc(C[N+](C)(C)N)cc1OC | > 100 µM | > 100 µM
17 | COc1ccc(-c2nc3ccccn3c2/C=C/C(=O)c2cc(OC)c(OC)c(OC)c2)cc1OC | 53.3 µM | 7.38 µM
18 | CC(C)c1c(O)c(O)c2c(c1O)C(=O)C(O)=C1C(C)(C)CCC[C@@]12C | 19.5 µM | 
19 | NS(=O)(=O)c1ccc(-c2ccc3c(NC(=O)C4CC4)n[nH]c3c2)cc1 | > 25 µM | > 25 µM
20 | COc1cc2c3c(n(CCCN)c(=O)c2cc1OC)-c1ccc(C#N)cc1C3=O | 33.2 µM | 18 µM
21 | O=C1c2ccccc2C(=O)C1(O)c1c[nH]c2ccccc12 | > 100 µM | 
22 | O=C(Nc1cc(Cl)c(Cl)cc1Cl)C(=O)C1C(=O)NC(=S)NC1=O | > 100 µM | 

System: SK-MEL-28 melanoma
Assay: DTP human tumour cell line panel, 48 h

Row | SMILES | TGI | GI50
23 | OCC1OC(n2cnc3c2NC=NC[C@H]3O)C(Cl)C1O (some centres undefined) | > 100 µM | 
24 | COc1ccc(C2=C(Cl)c3cc(OC)c(OC)cc3C2Cl)cc1 (centres undefined) | 31.8 µM | 
25 | O=C(/C=C/c1ccc(Cl)c(Cl)c1)c1ccc2ccccc2c1 | > 100 µM | 
26 | COc1ccc(-c2[nH]c3ccc(OC)cc3c2/C=C(\C#N)S(=O)(=O)c2ccccc2)cc1 | > 67.8 µM | 0.765 µM
27 | O=c1cc(NCC(O)CN2CCCC2)n(Cc2ccccc2)c(=O)n1Cc1ccccc1 (centres undefined) | 34.6 µM | 16.7 µM
28 | c1ccc(Sc2ccc(Cc3nc4cc5ccccc5cc4[nH]3)cc2)cc1 | > 100 µM | 37.7 µM
29 | CCc1nc2cc(F)c(/C=C/C(=O)NO)cc2c(=O)n1CCc1ccccc1 | 11.5 µM | 0.381 µM
30 | COc1cc(OC)c(C(=O)/C=C/c2cccc(C(F)(F)F)c2)c(OC)c1 | 4.74 µM | 1.51 µM
31 | C/C(=N\Nc1ccc(Cl)cn1)c1ccc2ccccc2n1 | > 100 µM | 3.6 µM
32 | CC1=C(/C=C/Cl)CC(Cl)C(C)(Cl)C1 (centres undefined) | > 100 µM | 
33 | COc1cc2c(cc1OCCCCC(=O)Nc1cc3c4ccccc4ccc3c3ccccc13)N=C[C@@H]1CCCN1C2=O | 12.2 µM | 3.41 µM
34 | COc1c2c(cc3c1OCO3)[C@]13C=C[C@H](OC)C[C@H]1N(C2)CC3O (some centres undefined) | > 100 µM | 
35 | Cc1[nH]c(=O)nc2[nH][nH]c(=O)c12 | > 100 µM | 
36 | C=C1C(=O)O[C@H]2[C@H]1CC/C(COC(=O)NCCCCNC(=O)OC/C1=C/CC[C@@]3(C)O[C@H]3[C@H]3OC(=O)C(=C)[C@@H]3CC1)=C\CC[C@@]1(C)O[C@@H]21 | 2.3 µM | 0.529 µM
37 | Cc1cc(NS(=O)(=O)c2ccc(Nc3c4ccccc4nc4c(C(=O)N5CCN(CCO)CC5)cccc34)cc2)no1 | > 100 µM | 
38 | COc1ccc(C[N+](C)(C)N)cc1OC | > 100 µM | > 100 µM
39 | COc1ccc(-c2nc3ccccn3c2/C=C/C(=O)c2cc(OC)c(OC)c(OC)c2)cc1OC | 14.7 µM | 3.3 µM
40 | CC(C)c1c(O)c(O)c2c(c1O)C(=O)C(O)=C1C(C)(C)CCC[C@@]12C | 17.7 µM | 
41 | NS(=O)(=O)c1ccc(-c2ccc3c(NC(=O)C4CC4)n[nH]c3c2)cc1 | > 25 µM | > 25 µM
42 | COc1cc2c3c(n(CCCN)c(=O)c2cc1OC)-c1ccc(C#N)cc1C3=O | 35.7 µM | 18.5 µM
43 | O=C1c2ccccc2C(=O)C1(O)c1c[nH]c2ccccc12 | > 100 µM | 
44 | O=C(Nc1cc(Cl)c(Cl)cc1Cl)C(=O)C1C(=O)NC(=S)NC1=O | > 100 µM | 

System: UACC-62 melanoma
Assay: DTP human tumour cell line panel, 48 h

Row | SMILES | TGI | GI50
45 | OCC1OC(n2cnc3c2NC=NC[C@H]3O)C(Cl)C1O (some centres undefined) | > 100 µM | 
46 | COc1ccc(C2=C(Cl)c3cc(OC)c(OC)cc3C2Cl)cc1 (centres undefined) | 31.4 µM | 
47 | O=C(/C=C/c1ccc(Cl)c(Cl)c1)c1ccc2ccccc2c1 | > 100 µM | 
48 | COc1ccc(-c2[nH]c3ccc(OC)cc3c2/C=C(\C#N)S(=O)(=O)c2ccccc2)cc1 | > 61.1 µM | 644 nM
49 | O=c1cc(NCC(O)CN2CCCC2)n(Cc2ccccc2)c(=O)n1Cc1ccccc1 (centres undefined) | 47.3 µM | 20900 nM
50 | c1ccc(Sc2ccc(Cc3nc4cc5ccccc5cc4[nH]3)cc2)cc1 | 27.2 µM | 4170 nM
51 | CCc1nc2cc(F)c(/C=C/C(=O)NO)cc2c(=O)n1CCc1ccccc1 | 0.699 µM | 235 nM
52 | COc1cc(OC)c(C(=O)/C=C/c2cccc(C(F)(F)F)c2)c(OC)c1 | 2.5 µM | 986 nM
53 | C/C(=N\Nc1ccc(Cl)cn1)c1ccc2ccccc2n1 | > 100 µM | 3250 nM
54 | CC1=C(/C=C/Cl)CC(Cl)C(C)(Cl)C1 (centres undefined) | > 100 µM | 
